Results published in patent US20180057507A1, “INHIBITORS OF DUAL LEUCINE ZIPPER (DLK) KINASE FOR THE TREATMENT OF DISEASE” (Board of Regents, The University of Texas System, priority 2016, published 2018).

Legend:
human DLK [1] = target: T1, human DLK (Homo sapiens, UniProt Q12852); test: DLK Kd Determinations (KINOMEscan KdELECT, DiscoveRx); parameters: full length of human DLK (amino acids 1-859); host or cells: transiently transfected HEK293 cells; unpurified extract; conditions: fusion protein of full length human DLK (amino acids 1-859) and NFkB DNA binding domain; qPCR readout; duplicate
T1 sequence (Q12852 1-859): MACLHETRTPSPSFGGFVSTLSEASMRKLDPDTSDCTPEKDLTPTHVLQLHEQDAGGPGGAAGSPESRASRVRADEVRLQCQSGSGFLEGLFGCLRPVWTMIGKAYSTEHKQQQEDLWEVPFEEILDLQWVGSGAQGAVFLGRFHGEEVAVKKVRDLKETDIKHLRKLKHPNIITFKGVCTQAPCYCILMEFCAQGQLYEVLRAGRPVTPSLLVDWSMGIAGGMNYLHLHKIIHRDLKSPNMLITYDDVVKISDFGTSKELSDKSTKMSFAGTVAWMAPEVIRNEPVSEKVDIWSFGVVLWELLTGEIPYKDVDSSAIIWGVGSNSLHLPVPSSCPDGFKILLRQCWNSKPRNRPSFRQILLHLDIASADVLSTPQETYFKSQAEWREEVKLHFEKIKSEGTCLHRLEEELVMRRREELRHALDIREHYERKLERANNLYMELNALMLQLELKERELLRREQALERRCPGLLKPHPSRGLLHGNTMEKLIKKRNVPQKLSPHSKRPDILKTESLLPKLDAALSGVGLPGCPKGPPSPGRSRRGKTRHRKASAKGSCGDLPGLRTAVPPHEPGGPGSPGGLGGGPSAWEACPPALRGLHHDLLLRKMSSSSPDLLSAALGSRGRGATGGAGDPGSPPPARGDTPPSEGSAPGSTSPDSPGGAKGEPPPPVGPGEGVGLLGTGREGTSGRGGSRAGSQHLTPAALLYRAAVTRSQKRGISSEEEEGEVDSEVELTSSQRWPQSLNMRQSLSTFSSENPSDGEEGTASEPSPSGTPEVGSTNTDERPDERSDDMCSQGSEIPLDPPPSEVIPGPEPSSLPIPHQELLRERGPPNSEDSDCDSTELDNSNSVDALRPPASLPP
In short: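 Kd values were fitted by Hill equation (slope −1) from duplicate 11-point 3-fold dilutions starting at 30,000 nM. Bead-immobilized ligand competed with compound for DNA-tagged full-length human DLK fusion in HEK293 extract (final DMSO 0.9%, 1 h, room temperature), with qPCR readout of bound kinase.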

human DLK [2] = target: T1, human DLK; test: Phospho-cJun Cellular Assay; assay type: cell-based; parameters: expressed in transfected cells; conditions: HEK293 cells stably transfected with Dox-inducible human DLK; p-cJun (Ser63); 5 h compound incubation
Description: Phospho-cJun Cellular Assay
HEK293 cells stably transfected with a Dox-inducible human DLK were plated into a 384-well plate in 20 μl (40,000 cells/well) of DMEM medium (without phenol red) containing 10% fetal bovine serum, 1.5 μg/ml doxycycline and 1 μg/ml puromycin. The cells as negative control were grown in the absence of doxycycline. The plate was incubated at 37° C., 5% CO2 for 20 h, before DMSO (control) or compounds diluted in medium were added. The cells were incubated at 37° C. for an additional 5 h, followed by lysis and the addition detection antibodies from p-cJun (Ser63) cellular assay kit (Cisbio) per manufacturer protocol. The standard dose response curves were fitted by Genedata Screener software using the variable-slope model: Signal=Signalnegative control+(SignalDMSO control−Signalnegative control)/(1+(IC50/Dose)̂Hill slope). Only signal and dose in the equation were treated as known values.

SMILES | Kd (human DLK [1]) | IC50 (human DLK [2])
CC(C)c1nc(-c2cnc(N)c(OC(F)(F)F)c2)cn1[C@H]1[C@@H]2CC(N3CCN(CCF)CC3)C[C@@H]21 (single isomer, unassigned) [Example 156b, 5-(1-(3-(4-(2-fluoroethyl)piperazin-1-yl)bicyclo[3.1.0]hexan-6-yl)-2-isopropyl-1H-imidazol-4-yl)-3-(trifluoromethoxy)pyridin-2-amine] | 11 nM | 874 nM
CC(C)c1nc(-c2cnc(N)c(OC(F)(F)F)c2)cn1[C@H]1[C@@H]2CC(N3CCOC[C@@H]3C)C[C@@H]21 (single isomer, unassigned) [Example 157a] | 57 nM | 895 nM
CC(C)c1nc(-c2cnc(N)c(OC(F)(F)F)c2)cn1[C@H]1[C@@H]2CC(N3CCOC[C@@H]3C)C[C@@H]21 (single isomer, unassigned) [Example 157b] | 22 nM | 827 nM
CC(C)c1nc(-c2cnc(N)c(OC(F)(F)F)c2)cn1[C@H]1C2CC(N3C[C@@H]4C[C@H]3CO4)C[C@@H]21 (stereo in doubt) [Example 134, 5-(1-((1S,5S)-3-((1S,4S)-2-oxa-5-azabicyclo[2.2.1]heptan-5-yl)bicyclo[3.1.0]hexan-6-yl)-2-isopropyl-1H-imidazol-4-yl)-3-(trifluoromethoxy)pyridin-2-amine] | 33 nM | 1040 nM
Nc1ncc(-c2cn([C@H]3[C@@H]4CN(C5COC5)C[C@@H]43)c(CC3CC3)n2)cc1C(F)(F)F [Example 2, 5-(2-(cyclopropylmethyl)-1-((1R,5S,6s)-3-(oxetan-3-yl)-3-azabicyclo[3.1.0]hexan-6-yl)-1H-imidazol-4-yl)-3-(trifluoromethyl)pyridin-2-amine] | 46 nM | 1730 nM
Nc1ncc(-c2cn3c(n2)C(C2CC2)N(C2COC2)CC3)cc1C(F)(F)F (centres unmarked) [Example 4, 5-[8-cyclopropyl-7-(oxetan-3-yl)-5H,6H,7H,8H-imidazo[1,2-a]pyrazin-2-yl]-3-(trifluoromethyl)pyridin-2-amine] | 390 nM | 14800 nM
CC(C)c1nc(-c2cnc(N)c(C(F)(F)F)c2)cn1C1CC1 [Example 6, 5-[1-cyclopropyl-2-(propan-2-yl)-1H-imidazol-4-yl]-3-(trifluoromethyl)pyridin-2-amine] | 130 nM | 3620 nM
CC(C)c1nc(-c2cnc(N)c(C(F)(F)F)c2)cn1C1CCC1 [Example 7, 5-[1-cyclobutyl-2-(propan-2-yl)-1H-imidazol-4-yl]-3-(trifluoromethyl)pyridin-2-amine] | 66 nM | 1070 nM
CCC(O)c1nc(-c2cnc(N)c(C(F)(F)F)c2)cn1C1CCC1 (centres unmarked) [Example 22, 1-(4-(6-amino-5-(trifluoromethyl)pyridin-3-yl)-1-cyclobutyl-1H-imidazol-2-yl)propan-1-ol] | 18 nM | 550 nM
CC(C)c1nc(-c2cnc(N)c(C(F)(F)F)c2)cn1C1CC2(C1)CN(C1COC1)C2 [Example 31, 5-(2-isopropyl-1-(2-(oxetan-3-yl)-2-azaspiro[3.3]heptan-6-yl)-1H-imidazol-4-yl)-3-(trifluoromethyl)pyridin-2-amine] | 82 nM | 2150 nM
CC(C)c1nc(-c2cnc(N)c(C(F)(F)F)c2)cn1C1CC2(CC(N3CCOCC3)C2)C1 (centres unmarked) [Example 38, 5-(2-isopropyl-1-(6-morpholinospiro[3.3]heptan-2-yl)-1H-imidazol-4-yl)-3-(trifluoromethyl)pyridin-2-amine] | 25 nM | 1140 nM
CC(C)c1nc(-c2cnc(N)c(OC(F)(F)F)c2)cn1C1CC2(CC(N3CCOCC3)C2)C1 (centres unmarked) [Example 39, 5-(2-isopropyl-1-(6-morpholinospiro[3.3]heptan-2-yl)-1H-imidazol-4-yl)-3-(trifluoromethoxy)pyridin-2-amine] | 30 nM | 771 nM
Nc1ncc(-c2cn(C3CC4(CC(N5CCOCC5)C4)C3)c(C3CC3)n2)cc1C(F)(F)F (centres unmarked) [Example 40, 5-(2-cyclopropyl-1-(6-morpholinospiro[3.3]heptan-2-yl)-1H-imidazol-4-yl)-3-(trifluoromethyl)pyridin-2-amine] | 42 nM | 587 nM
Nc1ncc(-c2cn(C3CC4(CC(N5CCOCC5)C4)C3)c(C3CC3)n2)cc1OC(F)(F)F (centres unmarked) [Example 41, 5-(2-cyclopropyl-1-(6-morpholinospiro[3.3]heptan-2-yl)-1H-imidazol-4-yl)-3-(trifluoromethoxy)pyridin-2-amine] | 38 nM | 483 nM
CC(C)c1nc(-c2cnc(N)c(C(F)(F)F)c2)cn1[C@H]1C[C@H](N2CCOCC2)C1 [Example 42, 5-(2-isopropyl-1-((1r,3r)-3-morpholinocyclobutyl)-1H-imidazol-4-yl)-3-(trifluoromethyl)pyridin-2-amine] | 180 nM | 2230 nM
CC(C)c1nc(-c2cnc(N)c(OC(F)(F)F)c2)cn1[C@H]1C[C@H](N2CCOCC2)C1 [Example 43, 5-(2-isopropyl-1-((1r,3r)-3-morpholinocyclobutyl)-1H-imidazol-4-yl)-3-(trifluoromethoxy)pyridin-2-amine] | 120 nM | 804 nM

Next, values leading:

Kd (human DLK [1]) | IC50 (human DLK [2]) | SMILES
33 nM | 589 nM | CC(C)Cc1nc(-c2cnc(N)c(OC(F)(F)F)c2)cn1[C@H]1[C@@H]2CC(N3CCN(CCF)CC3)C[C@@H]21 (single isomer, unassigned) [Example 159a, 5-(1-(3-(4-(2-fluoroethyl)piperazin-1-yl)bicyclo[3.1.0]hexan-6-yl)-2-isobutyl-1H-imidazol-4-yl)-3-(trifluoromethoxy)pyridin-2-amine]
49 nM | 1550 nM | CC(C)Cc1nc(-c2cnc(N)c(OC(F)(F)F)c2)cn1[C@H]1[C@@H]2CC(N3CCN(CCF)CC3)C[C@@H]21 (single isomer, unassigned) [Example 159b, 5-(1-(3-(4-(2-fluoroethyl)piperazin-1-yl)bicyclo[3.1.0]hexan-6-yl)-2-isobutyl-1H-imidazol-4-yl)-3-(trifluoromethoxy)pyridin-2-amine]
13 nM | 738 nM | CC(C)Cc1nc(-c2cnc(N)c(C(F)(F)F)c2)cn1[C@H]1[C@@H]2CC(N3CCN(CCF)CC3)C[C@@H]21 (single isomer, unassigned) [Example 160a, 5-(1-(3-(4-(2-fluoroethyl)piperazin-1-yl)bicyclo[3.1.0]hexan-6-yl)-2-isobutyl-1H-imidazol-4-yl)-3-(trifluoromethyl)pyridin-2-amine]
8.7 nM | 775 nM | CC(C)Cc1nc(-c2cnc(N)c(C(F)(F)F)c2)cn1[C@H]1[C@@H]2CC(N3CCN(CCF)CC3)C[C@@H]21 (single isomer, unassigned) [Example 160b, 5-(1-(3-(4-(2-fluoroethyl)piperazin-1-yl)bicyclo[3.1.0]hexan-6-yl)-2-isobutyl-1H-imidazol-4-yl)-3-(trifluoromethyl)pyridin-2-amine]
19 nM | 454 nM | CN1CCN(C2C[C@@H]3[C@H](C2)[C@H]3n2cc(-c3cnc(N)c(C(F)(F)F)c3)nc2CC2CC2)CC1 (single isomer, unassigned) [Example 161a, 5-(2-(cyclopropylmethyl)-1-(3-(4-methylpiperazin-1-yl)bicyclo[3.1.0]hexan-6-yl)-1H-imidazol-4-yl)-3-(trifluoromethyl)pyridin-2-amine]
5.6 nM | 769 nM | Nc1ncc(-c2cn([C@H]3[C@@H]4CC(N5CCN(CCF)CC5)C[C@@H]43)c(CC3CC3)n2)cc1C(F)(F)F (single isomer, unassigned) [Example 162b, 5-(2-(cyclopropylmethyl)-1-(3-(4-(2-fluoroethyl)piperazin-1-yl)bicyclo[3.1.0]hexan-6-yl)-1H-imidazol-4-yl)-3-(trifluoromethyl)pyridin-2-amine]
